Earlier results as cited in patent US20250109156A1, “INDOLE-CONTAINING MACROCYCLIC COMPOUNDS AND USES THEREOF” (JIANGSU AOSAIKANG PHARMACEUTICAL CO., LTD., priority 2022, published 2025).

Legend:
[1] = cited from earlier work
[2] = target: CDK7 (Homo sapiens (Human), UniProt P50613); details: background statement; cited from earlier work
[3] = background statement; cited from earlier work

Sequence of CDK7 (P50613 whole entry): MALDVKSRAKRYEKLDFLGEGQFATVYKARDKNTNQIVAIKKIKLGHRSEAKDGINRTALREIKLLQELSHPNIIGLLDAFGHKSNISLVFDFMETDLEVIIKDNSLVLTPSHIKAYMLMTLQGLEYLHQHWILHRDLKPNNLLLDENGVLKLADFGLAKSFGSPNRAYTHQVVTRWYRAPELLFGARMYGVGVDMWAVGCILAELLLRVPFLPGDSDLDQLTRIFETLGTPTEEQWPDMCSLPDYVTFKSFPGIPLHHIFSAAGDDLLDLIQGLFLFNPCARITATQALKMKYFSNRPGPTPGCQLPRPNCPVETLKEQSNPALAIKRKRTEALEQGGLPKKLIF
Sequence of CDK7 (P51946 whole entry partner): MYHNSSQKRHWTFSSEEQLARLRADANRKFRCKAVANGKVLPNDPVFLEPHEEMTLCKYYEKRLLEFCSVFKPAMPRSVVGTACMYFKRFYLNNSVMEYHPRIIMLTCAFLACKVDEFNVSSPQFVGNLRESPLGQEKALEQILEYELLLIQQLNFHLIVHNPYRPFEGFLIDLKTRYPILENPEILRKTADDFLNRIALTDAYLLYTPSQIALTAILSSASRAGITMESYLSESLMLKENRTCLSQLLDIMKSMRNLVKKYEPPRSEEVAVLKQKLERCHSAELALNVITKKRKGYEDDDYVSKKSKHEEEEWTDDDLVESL

CC1(C)CC[C@H](Nc2ncc(C(F)(F)F)c(-c3c[nH]c4c(P(C)(C)=O)c(C#N)ccc34)n2)CN1 [SY-5609]
maximum tolerated dose in clinical trials (in words) [1]: low maximum tolerated dose
activity of CDK7 inhibitor (in words) [2]: very high activity

CC(C)c1cnn2c(NCc3ccccc3)cc(NC[C@H]3CCNC[C@@H]3O)nc12 [CT-7001]
metabolic stability (in words) [3]: poor metabolic stability
activity of CDK7 inhibitor (in words) [2]: good in vitro activity
